Columns and labels:
Format in all cases: in vivo
[1] = system: bulrush; assay: Test Example 1: herbicidal effects in preemergence treatment under submerged conditions; settings: dose 2.52 g/a
Summary of the method: (§1)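 Score 0–5 by mortality (5: ≥90%; 0: <5%), read 3 weeks post-application. Paddy-type cups: alluvial soil under 4 cm water, weeds seeded plus transplanted 2.5-leaf rice; diluted EC dosed onto water surface same day as sowing, g/a basis; greenhouse 25 to 30° C.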

[2] = system: ducksalad; assay: as above; settings: dose 2.52 g/a
Summary of the method: as §1

[3] = system: barnyardgrass; assay: as above; settings: dose 2.52 g/a
Summary of the method: as §1

[4] = system: bulrush; assay: Test Example 2: herbicidal effects during the vegetation period under submerged conditions; settings: treatment during the vegetation period under submerged conditions; dose 2.52 g/a
Summary of the method: (§2)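 Barnyardgrass, bulrush and ducksalad were co-sown in alluvial soil flooded to 4 cm and grown in a greenhouse at 25 to 30° C. At the 1- or 2-leaf stage, water-diluted emulsifiable concentrates went onto the water surface at set doses (g/a). Herbicidal effect was scored three weeks later on a graded scale.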

[5] = system: ducksalad; assay: as above; settings: treatment during the vegetation period under submerged conditions; dose 2.52 g/a
Summary of the method: as §2

[6] = system: barnyardgrass; assay: as above; settings: treatment during the vegetation period under submerged conditions; dose 2.52 g/a
Summary of the method: as §2

[7] = system: wild oat; assay: Test Example 4: herbicidal effect in foliage treatment; settings: dose 3.2 g/a, three weeks after application
Summary of the method: (§3)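 Herbicidal effect was rated on an evaluation scale three weeks after treatment. Plants had been raised 14 days at 25 to 30° C in sterilized diluvial soil, then received foliar sprays of emulsifiable concentrate diluted in water at predetermined doses expressed as g per are.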

[8] = system: common ragweed; assay: as above; settings: dose 3.2 g/a, three weeks after application
Summary of the method: as §3

[9] = system: water foxtail; assay: as above; settings: dose 3.2 g/a, three weeks after application
Summary of the method: as §3

[10] = system: velvetleaf; assay: as above; settings: dose 3.2 g/a, three weeks after application
Summary of the method: as §3

[11] = system: common lambsquater; assay: as above; settings: dose 3.2 g/a, three weeks after application
Summary of the method: as §3

[12] = system: common chickweed; assay: as above; settings: dose 3.2 g/a, three weeks after application
Summary of the method: as §3

[13] = system: barnyardgrass; assay: as above; settings: dose 3.2 g/a, three weeks after application
Summary of the method: as §3

[14] = system: posumbu knotweed; assay: as above; settings: dose 3.2 g/a, three weeks after application
Summary of the method: as §3

[15] = system: giant foxtail; assay: as above; settings: dose 3.2 g/a, three weeks after application
Summary of the method: as §3

[16] = system: redroot pigweed; assay: as above; settings: dose 3.2 g/a, three weeks after application
Summary of the method: as §3

[17] = system: large crabgrass; assay: as above; settings: dose 3.2 g/a, three weeks after application
Summary of the method: as §3

[18] = system: beadstraw; assay: as above; settings: dose 3.2 g/a, three weeks after application
Summary of the method: as §3

[19] = system: Italian ryegrass; assay: as above; settings: dose 3.2 g/a, three weeks after application
Summary of the method: as §3

[20] = system: transplanted rice; assay: Test Example 1: preemergence treatment under submerged conditions, effect on crop; settings: dose 2.52 g/a
Summary of the method: as §1

[21] = system: wild oat; assay: Test Example 3: herbicidal effects in soil treatment; settings: dose 3.2 g/a
Summary of the method: (§4)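 Seeds were sown in sterilized diluvial soil and covered with about 1.5 cm of soil. Compounds, formulated as emulsifiable concentrates and diluted with water, were sprayed evenly over the soil surface at set doses in g/a. Herbicidal effect was scored on a rating scale three weeks later.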

[22] = system: common ragweed; assay: as above; settings: dose 3.2 g/a
Summary of the method: as §4

[23] = system: water foxtail; assay: as above; settings: dose 3.2 g/a
Summary of the method: as §4

[24] = system: velvetleaf; assay: as above; settings: dose 3.2 g/a
Summary of the method: as §4

[25] = system: common lambsquater; assay: as above; settings: dose 3.2 g/a
Summary of the method: as §4

[26] = system: common chickweed; assay: as above; settings: dose 3.2 g/a
Summary of the method: as §4

[27] = system: barnyardgrass; assay: as above; settings: dose 3.2 g/a
Summary of the method: as §4

[28] = system: giant foxtail; assay: as above; settings: dose 3.2 g/a
Summary of the method: as §4

[29] = system: redroot pigweed; assay: as above; settings: dose 3.2 g/a
Summary of the method: as §4

[30] = system: large crabgrass; assay: as above; settings: dose 3.2 g/a
Summary of the method: as §4

[31] = system: beadstraw; assay: as above; settings: dose 3.2 g/a
Summary of the method: as §4

[32] = system: Italian ryegrass; assay: as above; settings: dose 3.2 g/a
Summary of the method: as §4

SMILES | B: bulrush, herbicidal effect (evaluation scale 0-5) [1] | C: ducksalad, herbicidal effect (evaluation scale 0-5) [2] | A: barnyardgrass, herbicidal effect (evaluation scale 0-5) [3] | B: bulrush, herbicidal effect (evaluation scale 0-5) [4] | C: ducksalad, herbicidal effect (evaluation scale 0-5) [5] | A: barnyardgrass, herbicidal effect (evaluation scale 0-5) [6] | F: wild oat, herbicidal effect [7] | J: common ragweed, herbicidal effect [8] | G: water foxtail, herbicidal effect [9] | I: velvetleaf, herbicidal effect [10] | L: common lambsquater, herbicidal effect [11] | N: common chickweed, herbicidal effect [12] | A: barnyardgrass, herbicidal effect [13] | M: posumbu knotweed, herbicidal effect [14] | E: giant foxtail, herbicidal effect [15] | K: redroot pigweed, herbicidal effect [16] | D: large crabgrass, herbicidal effect [17] | O: beadstraw, herbicidal effect [18] | H: Italian ryegrass, herbicidal effect [19] | a: transplanted rice, effect on crop (evaluation scale 0-5) [20] | further results
COC(=O)N(c1ccccc1CN1COC(C)(C)CC1=O)S(=O)(=O)C(F)(F)F [II-22] | 5 (mortality of 90% or above (nearly complete death)) | 5 (mortality of 90% or above (nearly complete death)) | 5 (mortality of 90% or above (nearly complete death)) | 5 (mortality of 90% or above (nearly complete death)) | 5 (mortality of 90% or above (nearly complete death)) | 5 (mortality of 90% or above (nearly complete death)) | 0 (mortality of less than 5% (almost ineffective)) | 4 (mortality of at least 70% and less than 90%) | 5 (mortality of 90% or above (nearly complete death)) | 5 (mortality of 90% or above (nearly complete death)) | 3 (mortality of at least 40% and less than 70%) | 3 (mortality of at least 40% and less than 70%) | 5 (mortality of 90% or above (nearly complete death)) | 3 (mortality of at least 40% and less than 70%) | 5 (mortality of 90% or above (nearly complete death)) | 0 (mortality of less than 5% (almost ineffective)) | 5 (mortality of 90% or above (nearly complete death)) | 5 (mortality of 90% or above (nearly complete death)) | 4 (mortality of at least 70% and less than 90%) | 0 (mortality of less than 5% (almost ineffective)) | F: wild oat, herbicidal effect (evaluation scale 0-5) [21]: 0 (mortality of less than 5% (almost ineffective)); J: common ragweed, herbicidal effect (evaluation scale 0-5) [22]: 3 (mortality of at least 40% and less than 70%); G: water foxtail, herbicidal effect (evaluation scale 0-5) [23]: 5 (mortality of 90% or above (nearly complete death)); I: velvetleaf, herbicidal effect (evaluation scale 0-5) [24]: 5 (mortality of 90% or above (nearly complete death)); L: common lambsquater, herbicidal effect (evaluation scale 0-5) [25]: 4 (mortality of at least 70% and less than 90%); N: common chickweed, herbicidal effect (evaluation scale 0-5) [26]: 4 (mortality of at least 70% and less than 90%); A: barnyardgrass, herbicidal effect (evaluation scale 0-5) [27]: 5 (mortality of 90% or above (nearly complete death)); E: giant foxtail, herbicidal effect (evaluation scale 0-5) [28]: 3 (mortality of at least 40% and less than 70%); K: redroot pigweed, herbicidal effect (evaluation scale 0-5) [29]: 0 (mortality of less than 5% (almost ineffective)); D: large crabgrass, herbicidal effect (evaluation scale 0-5) [30]: 5 (mortality of 90% or above (nearly complete death)); O: beadstraw, herbicidal effect (evaluation scale 0-5) [31]: 5 (mortality of 90% or above (nearly complete death)); H: Italian ryegrass, herbicidal effect (evaluation scale 0-5) [32]: 5 (mortality of 90% or above (nearly complete death))
CCCCOC(=O)N(c1ccccc1CN1COC(C)(C)CC1=O)S(=O)(=O)C(F)(F)F [II-25] | 5 (mortality of 90% or above (nearly complete death)) | 5 (mortality of 90% or above (nearly complete death)) | 5 (mortality of 90% or above (nearly complete death)) | 5 (mortality of 90% or above (nearly complete death)) | 5 (mortality of 90% or above (nearly complete death)) | 5 (mortality of 90% or above (nearly complete death)) | 0 (mortality of less than 5% (almost ineffective)) | 3 (mortality of at least 40% and less than 70%) | 5 (mortality of 90% or above (nearly complete death)) | 4 (mortality of at least 70% and less than 90%) | 1 (mortality of at least 5% and less than 20%) | 4 (mortality of at least 70% and less than 90%) | 5 (mortality of 90% or above (nearly complete death)) | 1 (mortality of at least 5% and less than 20%) | 5 (mortality of 90% or above (nearly complete death)) | 0 (mortality of less than 5% (almost ineffective)) | 5 (mortality of 90% or above (nearly complete death)) | 5 (mortality of 90% or above (nearly complete death)) | 0 (mortality of less than 5% (almost ineffective)) | 0 (mortality of less than 5% (almost ineffective)) | F: wild oat, herbicidal effect (evaluation scale 0-5) [21]: 0 (mortality of less than 5% (almost ineffective)); J: common ragweed, herbicidal effect (evaluation scale 0-5) [22]: 4 (mortality of at least 70% and less than 90%); G: water foxtail, herbicidal effect (evaluation scale 0-5) [23]: 5 (mortality of 90% or above (nearly complete death)); I: velvetleaf, herbicidal effect (evaluation scale 0-5) [24]: 5 (mortality of 90% or above (nearly complete death)); L: common lambsquater, herbicidal effect (evaluation scale 0-5) [25]: 0 (mortality of less than 5% (almost ineffective)); N: common chickweed, herbicidal effect (evaluation scale 0-5) [26]: 4 (mortality of at least 70% and less than 90%); A: barnyardgrass, herbicidal effect (evaluation scale 0-5) [27]: 4 (mortality of at least 70% and less than 90%); E: giant foxtail, herbicidal effect (evaluation scale 0-5) [28]: 3 (mortality of at least 40% and less than 70%); K: redroot pigweed, herbicidal effect (evaluation scale 0-5) [29]: 0 (mortality of less than 5% (almost ineffective)); D: large crabgrass, herbicidal effect (evaluation scale 0-5) [30]: 4 (mortality of at least 70% and less than 90%); O: beadstraw, herbicidal effect (evaluation scale 0-5) [31]: 5 (mortality of 90% or above (nearly complete death)); H: Italian ryegrass, herbicidal effect (evaluation scale 0-5) [32]: 1 (mortality of at least 5% and less than 20%)
